US20110059940A1, “2-Aryl Glycinamide Derivatives” (Bristol- Myers Squibb Company, priority 2008, published 2011)
Where two headings read alike, the source gives them in different places.

Test system: β-amyloid peptide formation in human H4 cells
Experiment: Inhibition of β-amyloid peptide (Aβ) formation in H4 cells overexpressing HPLAP-APP fusion protein
Type: cell-based
Procedure: γ-Secretase inhibitors were also evaluated using in vitro assays based on the inhibition of Aβ formation in cultured cells. Cultured human cell lines, such as HEK293 and H4 cells, which express APP and γ-secretase activity or transfected derivative cell lines that overexpress wild-type APP, mutant APP, or APP fusion proteins will secrete Aβ peptides into the culture media that can be quantified as previously outlined (Dovey, H. et al., J. Neurochem. 2001, 76, 173). The incubation of these cultured cells with γ-secretase inhibitors decreases the production of Aβ peptides. For instance, H4 cells stably transfected to overexpress the HPLAP-APP fusion protein described above were grown as above, detached, and adjusted to 2×10^5 cells/ml. 100 μl of the resulting suspension was then added to each well of a 96-well plate. After 4 hrs, the media was removed and replaced with 100 μl serum-free media containing various dilutions of the test compound. Plates were then incubated for 18 hrs at 37° C. and a 100 μl aliquot of the tissue culture supernatant was removed for determination of Aβ levels using time-resolved fluorescence of the homogenous sample as outlined above. The extent of Aβ inhibition was used to calculate the IC50 value for the test compound.
Representative compounds were evaluated in the above assay and were determined to inhibit Aβ formation.

[1] = class symbol, read-out: Binding affinity (IC50 in nM), activity class
[2] = number in parentheses, read-out: Binding affinity (IC50 in nM)

`NC(=O)C(c1cc(F)cc(F)c1)N(Cc1ccc(-n2cccn2)cc1)S(=O)(=O)c1ccc(Cl)cc1` (stereo not drawn) [Example 12, α-[(4-Chlorobenzenesulfonyl)(4-pyrazolylphenylmethyl)amino]-3,5-difluorobenzene-acetamide] gave an IC50 [1] of 0.25 to 50 nM and an IC50 [2] of 9.15 nM.

`CCNC(=O)c1ccc(CN(C(C(N)=O)c2cc(F)cc(F)c2)S(=O)(=O)c2ccc(Cl)cc2)cc1` (stereo not drawn) [Example 3, α-[(4-Chlorobenzenesulfonyl)((4-ethylaminocarbonylphenyl)methyl)amino]-3,5-difluorobenzeneacetamide] showed an IC50 [1] of 0.25 to 50 nM and an IC50 [2] of 1.28 nM.

In the case of `CC(C)(C)NC(=O)c1ccc(CN(C(C(N)=O)c2cc(F)cc(F)c2)S(=O)(=O)c2ccc(Cl)cc2)cc1` (stereo not drawn) [Example 4, α-[(4-Chlorobenzenesulfonyl)(4-t-butylaminocarbonylphenylmethyl)amino]-3,5-difluorobenzeneacetamide], the IC50 [1] is reported as 0.25 to 50 nM.

`NC(=O)C(c1cc(F)cc(F)c1)N(Cc1ccc(C(=O)N2CCC2)cc1)S(=O)(=O)c1ccc(Cl)cc1` (stereo not drawn) [Example 5, α-[(4-Chlorobenzenesulfonyl)(4-azetidinylcarbonylphenylmethyl)amino]-3,5-difluorobenzene-acetamide] was tested, and the IC50 [1] was 0.25 to 50 nM.

Compound `CNC(=O)c1ccc(CN(C(C(N)=O)c2cc(F)cc(F)c2)S(=O)(=O)c2ccc(Cl)cc2)cc1` (stereo not drawn) [Example 6, α-[(4-Chlorobenzenesulfonyl)(4-methylaminocarbonylphenylmethyl)amino]-3,5-difluorobenzene-acetamide] has an IC50 [1] of 0.25 to 50 nM.

For `CC(C)(C)OC(=O)c1ccc(CN(C(C(N)=O)c2cc(F)cc(F)c2)S(=O)(=O)c2ccc(Cl)cc2)cc1` (stereo not drawn) [Example 1, α-[(4-Chlorobenzenesulfonyl)((4-t-butyloxycarbonylphenyl)methyl)amino]-3,5-difluorobenzeneacetamide], the IC50 [1] was 0.25 to 50 nM.

`NC(=O)C(c1cc(F)cc(F)c1)N(Cc1ccc(F)cc1)S(=O)(=O)c1ccc(Cl)cc1` (stereo not drawn) [Example 14, α-[(4-Chlorobenzenesulfonyl)(4-fluorophenylmethyl)amino]-3,5-difluorobenzene-acetamide] gave an IC50 [1] of 0.25 to 50 nM.

In the case of `NC(=O)C(c1cc(F)cc(F)c1)N(Cc1ccc(C(=O)O)cc1)S(=O)(=O)c1ccc(Cl)cc1` (stereo not drawn) [Example 2, α-[(4-Chlorobenzenesulfonyl)((4-carboxyphenyl)methyl)amino]-3,5-difluorobenzene-acetamide], the IC50 [1] is reported as 50 to 500 nM and the IC50 [2] is reported as 116 nM.

Compound `CCN1CCc2cc(CN(C(C(N)=O)c3cc(F)cc(F)c3)S(=O)(=O)c3ccc(Cl)cc3)ccc2C1=O` (stereo not drawn) [Example 9, α-[(4-Chlorobenzenesulfonyl)(1-oxo-2-ethyl-1,2,3,4-tetrahydroisoquinolin-6-ylmethyl)amino]-3,5-difluorobenzeneacetamide] has an IC50 [1] of 0.25 to 50 nM.

In the case of `NC(=O)C(c1cc(F)cc(F)c1)N(Cc1ccc(-n2cncn2)cc1)S(=O)(=O)c1ccc(Cl)cc1` (stereo not drawn) [Example 11, α-[(4-Chlorobenzenesulfonyl)(4-(1,2,4-triazolyl)-phenylmethyl)amino]-3,5-difluorobenzene-acetamide], the IC50 [1] is reported as 0.25 to 50 nM.

`NC(=O)C(c1cc(F)cc(F)c1)N(Cc1ccc(C(=O)NC2CCC2)cc1)S(=O)(=O)c1ccc(Cl)cc1` (stereo not drawn) [Example 8] was tested, and the IC50 [1] was 0.25 to 50 nM and the IC50 [2] was 0.93 nM.

In the case of `NC(=O)C(c1cc(F)cc(F)c1)N(Cc1ccc(-c2ncon2)cc1)S(=O)(=O)c1ccc(Cl)cc1` (stereo not drawn) [Example 19], the IC50 [1] is reported as 0.25 to 50 nM.

`Cc1nc(-c2ccc(CN(C(C(N)=O)c3cc(F)cc(F)c3)S(=O)(=O)c3ccc(Cl)cc3)cc2)no1` (stereo not drawn) [Example 18] was tested, and the IC50 [1] was 0.25 to 50 nM.

Compound `N#Cc1ccc(CN(C(C(N)=O)c2cc(F)cc(F)c2)S(=O)(=O)c2ccc(Cl)cc2)cc1` (stereo not drawn) [Example 16, α-[(4-Chlorobenzenesulfonyl)(4-cyanophenylmethyl)amino]-3,5-difluorobenzene-acetamide] has an IC50 [1] of 0.25 to 50 nM and an IC50 [2] of 12.4 nM.

With `CCNC(=O)c1ccc(CN(C(C(N)=O)c2ccccc2C)S(=O)(=O)c2ccc(Cl)cc2)cc1` (stereo not drawn) [Example 31, α-[(4-Chlorobenzenesulfonyl)((4-ethylaminocarbonylphenyl)methyl)amino]-2-methylbenzene-acetamide] the IC50 [1] was 50 to 500 nM and the IC50 [2] was 127 nM.
